Tests used:
[1] = test system: murine Lewis lung adenocarcinoma; assay: Lung metastases of subcutaneous Lewis lung carcinoma; type: in vivo, C57BL/6 mice; conditions: day 20; squalamine 20 mg/kg/day s.c.; cyclophosphamide 125 mg/kg i.p. days 7, 9, 11; cisplatin 10 mg/kg i.p. day 7
Protocol: The murine Lewis lung adenocarcinoma was implanted subcutaneously in the hind-leg of male C57BL/6 mice and allowed to grow for one week. Groups of mice were then left untreated or treated with either squalamine (20 mg/kg/day, s.c.), cyclophosphamide (125 mg/kg, i.p. on days 7, 9 and 11), cisplatin (10 mg/kg, i.p. on day 7), the combination of squalamine and cyclophosphamide, or the combination of squalamine and cisplatin. On day 20, the animals were sacrificed, and the mean number of lung metastases were determined for each group.

rabbit corneas = assay: Inflammation in rabbit cornea without angiogenic stimulus; type: in vivo; conditions: pellets with 2%, 10% and 20% squalamine by weight
Protocol: In the rabbit corneal micropocket assay test, if the rabbit cornea becomes inflamed, this inflammation can lead to the formation of new blood vessels in the cornea. Such inflammation would skew the test results. Therefore, tests were conducted to determine whether squalamine, in and of itself, was responsible for any inflammatory response in the cornea. Several non-bioresorbable ethylene/vinyl acetate copolymer pellets were loaded with different concentrations of squalamine, namely, 2%, 10%, and 20% squalamine, by weight.

[2] = test system: human MX-1 breast cancer line; type: in vivo
Protocol: These documents each are entirely incorporated herein by reference. Squalamine was examined as adjunctive therapy following a single 200 mg/kg dose of cyclophosphamide. The cyclophosphamide was injected on day 14 following implantation of the tumor, at a time when the tumors measured 65-125 μl. […] The animals were then randomized to three treatment arms (each n=27): vehicle dosing only (Intralipid); squalamine given 10 mg/kg/day in Intralipid; and squalamine given 20 mg/kg/day in Intralipid for five days a week. Animals whose tumors exceeded 2 grams at any time during the experiment were euthanized. The experiment was continued for 90 days after initiating squalamine treatment to ensure that only mice experiencing long-term cures were still alive.

rat 9L glioma = assay: Glioma lethality study, rat glioma implanted into rat brain; type: in vivo; conditions: 20 mg/kg/day i.p. from three days after implantation
From the text: FIG. 10 illustrates survival test results using squalamine in a glioma lethality study with a rat 9L glioma introduced into the brains of healthy rats;
In view of these test results, applicants tested squalamine in an animal model for brain cancer. To test the effect of squalamine on tumors located in the brain, small sections (1 mm3) of existing rat gliomas were taken from rat flanks where they were being maintained and were implanted into the rat brains in two groups of rats. Thus, in this model, the tumors were viable when placed in the rat brain. Three days after implantation, and after some vasculature had developed, treatment with 20 mg/kg/day of squalamine (i.p.) was initiated in one group of rats. The control animals (“vehicle control” in FIG. 10) were given the carrier vehicle only (no squalamine), and the other animals were treated with squalamine (“Squalamine” in FIG. 10).

NHE1 = NHE1 (Homo sapiens, UniProt P19634); assay: NHE1 activity in unstimulated melanoma cells; type: cell-based; design: endogenous in cells
NHE1, sequence (P19634 whole entry, species assumed, canonical isoform): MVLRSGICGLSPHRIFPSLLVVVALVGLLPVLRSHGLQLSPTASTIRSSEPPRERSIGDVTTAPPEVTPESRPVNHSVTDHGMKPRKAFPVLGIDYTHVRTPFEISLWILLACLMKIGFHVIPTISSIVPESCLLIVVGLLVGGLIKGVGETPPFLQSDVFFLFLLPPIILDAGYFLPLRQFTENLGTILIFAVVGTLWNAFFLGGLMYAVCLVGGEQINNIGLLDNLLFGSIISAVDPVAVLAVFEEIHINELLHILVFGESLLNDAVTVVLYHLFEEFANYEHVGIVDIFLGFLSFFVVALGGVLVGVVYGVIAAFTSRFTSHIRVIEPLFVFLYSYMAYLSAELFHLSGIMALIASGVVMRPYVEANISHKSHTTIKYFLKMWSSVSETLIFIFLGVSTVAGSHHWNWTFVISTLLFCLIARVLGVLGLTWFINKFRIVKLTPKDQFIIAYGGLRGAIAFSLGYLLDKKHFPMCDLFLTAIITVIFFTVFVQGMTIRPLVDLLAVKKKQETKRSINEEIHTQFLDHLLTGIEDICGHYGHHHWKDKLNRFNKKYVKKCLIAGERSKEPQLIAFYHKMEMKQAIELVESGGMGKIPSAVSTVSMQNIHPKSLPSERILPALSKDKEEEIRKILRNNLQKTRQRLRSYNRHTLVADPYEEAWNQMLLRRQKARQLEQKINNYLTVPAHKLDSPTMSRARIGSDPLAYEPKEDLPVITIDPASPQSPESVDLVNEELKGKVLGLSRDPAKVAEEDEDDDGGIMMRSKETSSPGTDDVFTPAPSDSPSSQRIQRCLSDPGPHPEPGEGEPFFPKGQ
Protocol: The effect of squalamine on NHE activity was measured to determine which isoforms of NHE were affected by squalamine. NHE activity can be measured under various different cellular conditions. Acid loading a cell activates all of the antiporters and permits measurement of NHE. NHE activity also can be measured after growth factor stimulation of the cell. Additionally, the NHE activity can be measured when the cell is in an unstimulated state, because the antiporters, even if unstimulated, continue to function at a slow, but non-zero rate. In each of these cellular conditions, NHE activity usually is measured in the absence of bicarbonate.
NHE3 in particular is relatively resistant to inhibition by the amilorides.

[3] = test system: human brain capillary endothelial cells; assay: Growth factor stimulated growth of human brain capillary endothelial cells; type: cell-based
From the text: Thus, as the tumor puts out a variety of different growth factors, squalamine has an inhibitory effect on several.

[4] = target: T1, rabbit NHE3 with 76 C-terminal amino acids removed (Oryctolagus cuniculus, UniProt P26432); assay: Rabbit NHE3 with the 76 C-terminal amino acids removed; type: cell-based
T1 construct: expressed in transfected cells
T1 sequence (P26432 30-756): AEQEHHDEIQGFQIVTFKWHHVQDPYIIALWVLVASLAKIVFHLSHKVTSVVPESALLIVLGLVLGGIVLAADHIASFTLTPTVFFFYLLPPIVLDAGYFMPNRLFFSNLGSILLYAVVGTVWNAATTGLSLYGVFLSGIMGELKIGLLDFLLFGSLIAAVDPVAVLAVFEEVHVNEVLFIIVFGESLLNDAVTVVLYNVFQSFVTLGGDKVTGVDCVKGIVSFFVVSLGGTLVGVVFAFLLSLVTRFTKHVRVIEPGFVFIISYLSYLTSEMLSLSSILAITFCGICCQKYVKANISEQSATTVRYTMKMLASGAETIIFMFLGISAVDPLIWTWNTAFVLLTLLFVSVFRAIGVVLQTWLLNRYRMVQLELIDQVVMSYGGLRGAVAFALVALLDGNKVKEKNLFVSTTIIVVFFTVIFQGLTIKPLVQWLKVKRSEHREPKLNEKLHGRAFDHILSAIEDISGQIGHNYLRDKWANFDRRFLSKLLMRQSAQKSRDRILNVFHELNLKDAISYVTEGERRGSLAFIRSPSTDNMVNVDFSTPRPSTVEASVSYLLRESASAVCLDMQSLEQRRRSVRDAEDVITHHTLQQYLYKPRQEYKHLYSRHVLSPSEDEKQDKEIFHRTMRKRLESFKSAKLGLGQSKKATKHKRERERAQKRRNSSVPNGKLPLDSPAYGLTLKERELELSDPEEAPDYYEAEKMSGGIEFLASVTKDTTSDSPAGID
From the text: This NHE3 inhibiting activity of squalamine has been mapped to the 76 C-terminal amino acids on the NHE3 molecule. […] Thus, the 76 C-terminal amino acids of NHE3 are the site of inhibition by squalamine.

Calu-6 = Calu-6 lung tumor xenograft with carboplatin; type: in vivo, nude BALBc mice; conditions: carboplatin 60 mg/kg i.p. single dose, squalamine 20 mg/kg once daily for 5 days
Protocol: About 5×10^6 cells from each of two human lung tumor lines, H460 (a rapidly proliferating large cell carcinoma cell line, ATCC HTB-177) and Calu-6 (an anaplastic carcinoma, ATCC HTB-56), were inoculated subcutaneously in the right foreleg of nude BALBc mice. Once tumors were visible (3-5 days) with a mean volume of approximately 50-80 mm^3, mice were treated intraperitoneally with 60 mg/kg carboplatin (single dose) or 20 mg/kg/squalamine (once daily for 5 days) or a combination of carboplatin and squalamine. There were 8 mice per group. Tumor growth inhibition was scored by quantifying the size of tumors once control tumors reached a size of 1.0 gram and determining the ratio of mean treated tumor size to mean control tumor size (T/C). Tumor growth inhibition was then scored as 100% x [1-(T/C)]. A separate antitumor activity variable, tumor growth delay, was scored for the tumors by determining the length of time it required for the mean tumor size in a treatment group to reach a size of 500 mm^3 (B. A. Teicher et al., Anticancer Research 18, 2567-2574 (1998)). The tumor growth inhibition seen with carboplatin plus squalamine was greater than that seen with carboplatin or squalamine alone. The relative inactivity of squalamine as a single agent by this assay endpoint supports the idea that squalamine is synergistic with carboplatin in the inhibition of these two human lung tumor xenografts. Similarly, it was determined that squalamine enhanced the tumor growth delay caused by carboplatin by an enhancement factor of >2.3 (Table 7).

rabbit NHE2 = target: T2, rabbit NHE2 (Oryctolagus cuniculus, UniProt P50482); assay: NHE activity, rabbit NHE2; type: cell-based; conditions: similar tests
T2 construct: expressed in transfected cells
T2 sequence (P50482 whole entry): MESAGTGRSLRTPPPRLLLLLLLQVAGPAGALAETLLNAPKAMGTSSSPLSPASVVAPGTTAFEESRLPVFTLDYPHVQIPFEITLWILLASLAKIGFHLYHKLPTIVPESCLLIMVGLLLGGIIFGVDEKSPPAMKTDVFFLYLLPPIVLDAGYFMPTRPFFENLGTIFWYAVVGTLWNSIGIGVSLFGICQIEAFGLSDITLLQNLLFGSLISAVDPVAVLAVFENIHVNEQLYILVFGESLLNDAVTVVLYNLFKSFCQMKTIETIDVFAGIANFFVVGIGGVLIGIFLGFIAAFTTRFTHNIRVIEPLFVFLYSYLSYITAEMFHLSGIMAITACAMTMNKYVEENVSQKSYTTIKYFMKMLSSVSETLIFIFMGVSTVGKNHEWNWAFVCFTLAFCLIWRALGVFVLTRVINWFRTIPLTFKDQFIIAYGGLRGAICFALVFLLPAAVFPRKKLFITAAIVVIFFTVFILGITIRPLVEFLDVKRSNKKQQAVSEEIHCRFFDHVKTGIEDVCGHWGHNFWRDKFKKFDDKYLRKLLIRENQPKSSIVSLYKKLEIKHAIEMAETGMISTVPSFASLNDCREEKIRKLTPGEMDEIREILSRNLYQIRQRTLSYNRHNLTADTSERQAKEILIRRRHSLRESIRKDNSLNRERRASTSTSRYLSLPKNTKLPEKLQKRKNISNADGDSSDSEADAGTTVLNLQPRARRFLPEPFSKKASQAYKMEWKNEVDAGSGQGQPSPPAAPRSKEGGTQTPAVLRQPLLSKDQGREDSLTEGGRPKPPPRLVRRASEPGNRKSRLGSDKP

## CC(C)[C@@H](CC[C@@H](C)[C@H]1CC[C@H]2[C@@H]3[C@H](O)C[C@H]4C[C@@H](NCCCNCCCCN)CC[C@]4(C)[C@H]3CC[C@]12C)OS(=O)(=O)O [Squalamine, squalamine]
[1]
  mean number of lung metastases: reduced the number of metastases
Rabbit corneas
  inflammation in the cornea: did not induce inflammation
[2]; squalamine 10 mg/kg/day after single 200 mg/kg cyclophosphamide, all times examined
  rate of progression of the breast tumors: significant (P<0.01) inhibition in the rate of progression of the breast tumors
[2]; squalamine 20 mg/kg/day after single 200 mg/kg cyclophosphamide, only at 30 days post-initiation
  progression of the breast tumors: significant (P<0.05) delay in progression of the breast tumors
[2]; squalamine 20 mg/kg/day for five weeks after cyclophosphamide, 90 days
  long-term cure rate vs cyclophosphamide alone: doubled the long-term cure rate
[2]; squalamine 20 mg/kg/day, discontinued after five weeks
  tolerability of high dose: animal weight loss and potential toxicity concerns
Rat 9L glioma
  increase in mean survival time: 38%
  mean survival time: 24.9 days
NHE1
  NHE1 activity in unstimulated melanoma cells: substantially down regulates the activity of the antiporter
[3]
  growth stimulation induced by b-FGF, PDGFbb, scatter factor, conditioned tumor media, human brain cyst fluid: interfere with growth stimulation
[4]
  effect on activity of NHE3 lacking the 76 C-terminal amino acids: virtually no effect
Calu-6
  Tumor Growth Inhibition (T/C): 8%
Rabbit NHE2
  effect on rabbit NHE2: not affected

Reference: patent US6596712B2, “Treatment of carcinomas using squalamine in combination with other anti-cancer agents or modalities” (Genaera Corporation, priority 1996, dated 2003)
